Experimental data: US20220151989A1, “LIPOIC ACID PRODRUG” (SANTEN PHARMACEUTICAL CO., LTD., priority 2019, published 2022)

Legend:
lens elasticity [1] = assay: Pharmacological Test-1: lens elasticity after instillation 3 times per day for 12 to 15 days; assay type: in vivo, C57BL/6J mice; settings: for Lens elasticity improvement: 0.03% (w/v) solution, 2.5 μL/eye, right eye, 3 times per day for 12 to 15 days, 8-month-old mice, vs vehicle control; for lens elasticity improving effect: at a concentration of 0.03%
Method: The effects of compounds 1 to 4 on the lens elasticity were examined. The tests were conducted with reference to the methods described in Invest Ophthalmol Vis Sci, 57, 2851-2863, 2016.
A vehicle (aqueous solution) comprising 0.1% (w/v) of ethyl pyruvate, 0.269% (w/v) of sodium dihydrogenphosphate monohydrate (NaH2PO4.H2O), 0.433% (w/v) of di sodium hydrogenphosphate (Na2HPO4), 0.2% (w/v) of hydroxypropyl methylcellulose, 0.5% (w/v) of NaCl, 1.0% (w/v) of polyoxyl 35 castor oil (hereinafter also referred to as “CO35”), and purified water (appropriate amount) was prepared.
Each of compounds 1 to 4 was stirred with the addition of the vehicle to give a 0.03% (w/v) solution.
EV06 was stirred with the addition of the vehicle to give a 0.03% (w/v) solution. (Test method) 1) Each test sample (2.5 μL/eye) was instilled into the right eye of 8-month-old C57BL/6J mice with a Pipetman 3 times per day (around 9:00, 13:00, 17:00) for 12 to 15 days. 2) After the final instillation, the mice were euthanized by carbon dioxide inhalation, and then the eyeballs were extracted and rinsed with Hank's balanced salt solution (HESS). 3) The sclera near the optic nerve was cut with a razor, the lens was removed through the incision, and the removed lens was immersed in HESS. 4) The lens was placed on a glass slide, and an all-in-one fluorescence microscope BZ-9000 (Keyence) was used to capture an image of the lens (Image a). 5) Next, one cover glass (Corning^registered trade mark) 22×22 mm Square) was placed on the lens, and an image in which the thickness of the lens changed due to the weight was similarly captured (Image b). 6) A change in the lens diameter was calculated from the following Equation 1 wherein the lens diameter of Image a is subtracted from the lens diameter of Image b. Then, the lens elasticity improvement of each sample group compared with the vehicle control group was calculated from Equation 2 described below. The mean value of the vehicle control group was based on 5 eyes, the mean value of each of the sample groups of compounds 1 to 4 was based on 10 eyes, and the mean value of EV06 sample group was based on 9 eyes.
(§1) Change in lens diameter=Lens diameter in Image b of each test sample−Lens diameter in Image a of each test sample (Equation 1)
(§2) Lens elasticity improvement of each sample group=Mean change in lens diameter of each Test sample group−Mean change in lens diameter of Vehicle control group (Equation 2)

lens elasticity [2] = assay: Pharmacological Test-2: lens elasticity at different concentrations, instillation 3 times per day for 12 to 15 days; assay type: in vivo, C57BL/6J mice; settings: for Lens elasticity improvement: 3 times per day for 12 to 15 days, 7 to 8-month-old mice
Method: The effects of Compounds 1, 3, and 4 on the lens elasticity were investigated at different concentrations.
(§3) Vehicle A (aqueous solution) comprising 0.1% (w/v) of ethyl pyruvate, 0.269% (w/v) of sodium dihydrogenphosphate monohydrate (NaH2PO4.H2O), 0.433% (w/v) of disodium hydrogenphosphate (Na2HPO4), 0.2% (w/v) of hydroxypropyl methylcellulose, 0.5% (w/v) of NaCl, 0.2% (w/v) of 0035, and purified water (appropriate amount) was prepared.
as §3, with “B (emulsion)” for “A (aqueous solution)”, “CO35, 0.6% benzyl benzoate,” for “0035,”
as §3, with “Vehicle C” for “Vehicle A”, “NaCl, 1.0%” for “NaCl, 0.2%”
as §3, with “Vehicle D (emulsion)” for “Vehicle A (aqueous solution)”, “NaCl, 1.0%” for “NaCl, 0.2%”, “of CO35, 3.0% benzyl benzoate,” for “of 0035,”
A diluent (aqueous solution) comprising 0.1% (w/v) of ethyl pyruvate, 0.269% (w/v) of sodium dihydrogenphosphate monohydrate (NaH2PO4.H2O), 0.433% (w/v) of disodium hydrogenphosphate (Na2HPO4), 0.2% (w/v) of hydroxypropyl methylcellulose, 0.5% (w/v) of NaCl, and purified water (appropriate amount) was prepared.
Compound 1 was stirred with the addition of Vehicle C to prepare a 1.5% (w/v) emulsion, and the emulsion was diluted with the diluent to give a 0.3% (w/v) emulsion. Further, the resulting 0.3% (w/v) emulsion was diluted with the diluent to give a 0.03% (w/v) emulsion. Further, the resulting 0.03% (w/v) emulsion was diluted with the diluent to give a 0.003% (w/v) emulsion.
Compound 3 was stirred with the addition of Vehicle C to give a 1.5% (w/v) solution, and the resulting solution was diluted to give a 0.3% (w/v) solution. Further, the resulting 0.3% (w/v) solution was diluted with Vehicle A to give a 0.03% (w/v) solution. Further, the resulting 0.03% (w/v) solution was diluted with Vehicle A to give a 0.003% (w/v) solution.
Compound 4 was stirred with the addition of Vehicle D to give a 1.5% (w/v) emulsion, and the resulting emulsion was diluted with the diluent to prepare a 0.3% (w/v) emulsion. Further, the resulting 0.3% (w/v) emulsion was diluted with the diluent to give a 0.03% (w/v) emulsion. Further, the resulting 0.03% (w/v) emulsion was diluted with the diluent to give a 0.003% (w/v) emulsion.
EV06 was stirred with the addition of Vehicle A to give a 1.5% (w/v) solution, which was used for comparison to the samples of Compound 1 and 3.
EV06 was sonicated with the addition of Vehicle B to give a 1.5% (w/v) emulsion, which was used for comparison to Compound 4 sample.
(Test method) 1) Each test sample (2.5 μL/eye) was instilled into the right eye of 7 to 8-month-old C57BL/6J mice with a Pipetman 3 times per day (around 9:00, 13:00 and 17:00) for 12 to 15 days. 2) After the final instillation, the mice were euthanized by carbon dioxide inhalation, and then the eyeballs were extracted and rinsed with Hank's balanced salt solution (HESS). 3) The sclera near the optic nerve was cut with a razor, the lens was removed through the incision, and the removed lens was immersed in HESS. 4) The lens was placed on a glass slide, and an all-in-one fluorescence microscope BZ-9000 (Keyence) was used to capture an image of the lens (Image a). […]

lens elasticity [3] = assay: Pharmacological Test-3: lens elasticity, Compounds 5 and 6, 3 times per day for 14 days; assay type: in vivo,  mice; settings: for Lens elasticity improvement: 0.03% (w/v) solution in Vehicle C, both eyes, 3 times per day for 14 days, 9-month-old mice; for lens elasticity improving effect: at a concentration of 0.03%
Method: The effects of Compounds 5 and 6 on the lens elasticity were investigated.
Compound 5 was stirred with the addition of Vehicle C to give a 0.03% (w/v) solution.
Compound 6 was stirred with the addition of Vehicle C to give a 0.03% (w/v) solution.
EV06 was stirred with the addition of Vehicle C to give a 0.03% (w/v) solution, which was used for comparison to the samples of Compounds 5 and 6.
1) Each test sample (2.5 μL/eye) was instilled into both eyes of 9-month-old […] mice with a Pipetman 3 times per day (around 9:00, 13:00 and 17:00) for 14 days. 2) After the final instillation, the mice were euthanized by carbon dioxide inhalation, and then the eyeballs were extracted and rinsed with Hank's balanced salt solution (HESS). 3) The sclera near the optic nerve was cut with a razor, the lens was removed through the incision, and the removed lens was immersed in HESS. 4) The lens was placed on a glass slide, and an all-in-one fluorescence microscope BZ-9000 (Keyence) was used to capture an image of the lens (Image a). 5) Next, one cover glass (Corning^(registered trade mark) 22×22 mm Square) was placed on the lens, and an image in which the thickness of the lens changed due to the weight was similarly captured (Image b). 6) A change in the lens diameter was calculated from the following Equation 1 wherein the lens diameter of Image a is subtracted from the lens diameter of Image b. Then, the lens elasticity improvement of each sample group compared with the vehicle control group was calculated from Equation 2 described below. The mean value of the vehicle control group was based on 8 eyes, and the mean value of each of the sample groups of Compounds 5 and 6 and EV06 was based on 10 eyes.
as §1, §2

| Structure (SMILES) | Lens elasticity improvement (lens elasticity [1]) | lens elasticity improving effect (lens elasticity [1]) | Lens elasticity improvement (lens elasticity [2]; 0.003% (w/v) sample) | Lens elasticity improvement (lens elasticity [2]; 0.03% (w/v) sample) | lens elasticity improvement compared with 1.5% EV06 group (lens elasticity [2]; 0.03% and 0.3% sample groups) | Lens elasticity improvement (lens elasticity [2]; 0.3% (w/v) sample) | Lens elasticity improvement (lens elasticity [3]) | lens elasticity improving effect (lens elasticity [3]) |
| --- | --- | --- | --- | --- | --- | --- | --- | --- |
| C[N+](C)(CCOC(=O)CCCC[C@@H]1CCSS1)Cc1ccccc1.[Cl-] [Compound 2, (R)-2-((5-(1,2-Dithiolan-3-yl)pentanoyl)oxy)-N-benzyl-N,N-dimethylethan-1-aminium chloride] | 6.1 μm | did not show lens elasticity improving effect | – | – | – | – | – | – |
| O=C(CCCC[C@@H]1CCSS1)OCCN1CCOCC1 [Compound 4, 2-Morpholinoethyl (R)-5-(1,2-dithiolan-3-yl)pentanoate] | 37.5 μm | potent lens elasticity improving effect | 25.0 μm | 56.5 μm | equivalent to or better than 1.5% EV06 group | 52.9 μm | – | – |
| O=C(CCCC[C@@H]1CCSS1)OC(CN1CCOCC1)CN1CCOCC1 [Compound 5, 1,3-Dimorpholinopropan-2-yl (R)-5-(1,2-dithiolan-3-yl)pentanoate] | – | – | – | – | – | – | 40.7 μm | potent lens elasticity improving effect |
| Cc1ncc(COC(=O)CCCC[C@@H]2CCSS2)c2c1OC(C)(C)OC2 [Compound 6, (2,2,5-Trimethyl-4H-[1,3]dioxo[5,4-c]pyridin-8-yl)methyl (R)-5-(1,2-dithiolan-3-yl)pentanoate] | – | – | – | – | – | – | 38.1 μm | potent lens elasticity improving effect |
